Earlier results in patent publication US7282487B2, “Method for treating bacterial infections in horses or pigs with tilmicosin” (priority 2004, dated 2007).

CC[C@H]1OC(=O)C[C@@H](O)[C@H](C)[C@@H](OC2OC(C)C(O)C(N(C)C)C2O)[C@@H](CCN2C[C@@H](C)C[C@H](C)C2)C[C@@H](C)C(=O)/C=C/C(C)=C/[C@@H]1COC1OC(C)C(O)C(OC)C1OC (stereo partly shown) [tilmicosin, Tilmicosin]
solubility in aqueous solutions: moderately soluble
